The record followed here is EP0595557A1, “New substituted azetidinones as anti-inflammatory and antidegenerative agents” (MERCK & CO. INC., priority 1992, dated 1994).

The structures appear in SMILES notation.

In the first experiment the target is T1, Human Polymorphonuclear Leukocyte Elastase (Homo sapiens, UniProt P08246).
T1 construct: Crude extract of human polymorphonuclear leukocytes (PMN) containing elastase activity; from tissue; host or cells: human polymorphonuclear leukocytes (crude extract)
T1 sequence (P08246 30-267): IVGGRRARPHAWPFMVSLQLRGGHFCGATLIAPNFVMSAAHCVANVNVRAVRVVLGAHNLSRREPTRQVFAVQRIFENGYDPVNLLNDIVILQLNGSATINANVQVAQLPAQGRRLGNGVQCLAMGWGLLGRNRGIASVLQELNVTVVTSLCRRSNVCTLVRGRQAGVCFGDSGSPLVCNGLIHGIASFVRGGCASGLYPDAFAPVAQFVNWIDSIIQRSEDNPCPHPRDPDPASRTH
Put plainly: Enzyme assay for inhibition of human polymorphonuclear leukocyte elastase via hydrolysis of Boc-AAPAN or Boc-AAPVN. The note with it: pH 7.5, second order rate constant for inactivation of the enzyme, expressed to the nearest thousand, read-out: Kobs/[I]. Type of experiment: biochemical. In a few lines: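 Crude human PMN extract as enzyme source, with 0.2 mM Boc-AAPAN in 0.05M TES buffer pH 7.5. Inhibitors in DMSO were added to substrate before the extract, and rate was followed as ΔOD/min at 410 mµ. Values are kobs/I, the second-order inactivation rate constant (per mole per second).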
`CCC[C@@H](NC(=O)N1C(=O)C(CC)(CC)[C@@H]1Oc1ccc(C(=O)N2CCNCC2)cc1)c1ccc(C)cc1` [Compound 247, [S-(R*,S*)]-2-[4-[[(4-Piperazin-1-yl)carbonyl]phenoxy] -((3,3-diethyl-N-[1-(4-methylphenyl)butyl]-4-oxo-1-azetidinecarboxamide]: the kinact/KI was determined as 1.1e+06 M⁻¹ s⁻¹. Same read-out and setting: the result for `CCC[C@@H](NC(=O)N1C(=O)C(CC)(CC)[C@@H]1Oc1ccc(C(=O)N2CCN(C(C)C)CC2)cc1)c1ccc(C)cc1` [Compound 248] reads 2.39e+06 M⁻¹ s⁻¹.

On to `CCC[C@@H](NC(=O)N1C(=O)C(CC)(CC)[C@@H]1Oc1ccc(C(=O)N2CCN(CC(C)C)CC2)cc1)c1ccc(C)cc1` [Compound 249], for which the kinact/KI was found to be 2.48e+06 M⁻¹ s⁻¹. As for `CCC[C@@H](NC(=O)N1C(=O)C(CC)(CC)[C@@H]1Oc1ccc(C(=O)N2CCN(CC(=O)OCC)CC2)cc1)c1ccc(C)cc1` [Compound 250], the kinact/KI was found to be 1.57e+06 M⁻¹ s⁻¹. Same read-out and setting: the result for `CCC[C@@H](NC(=O)N1C(=O)C(CC)(CC)[C@@H]1Oc1ccc(C(=O)N2CCN(CC(=O)O)CC2)cc1)c1ccc(C)cc1` [Compound 251] reads 1.95e+06 M⁻¹ s⁻¹. `CCC[C@@H](NC(=O)N1C(=O)C(CC)(CC)[C@@H]1Oc1ccc(C(=O)N2CCN(CC)CC2)cc1)c1ccc(C)cc1` [Compound 252]: the kinact/KI came to 2.32e+06 M⁻¹ s⁻¹. `CCC[C@@H](NC(=O)N1C(=O)C(CC)(CC)[C@@H]1Oc1ccc(C(=O)N2CCN(CCC)CC2)cc1)c1ccc(C)cc1` [Compound 253]: the kinact/KI amounted to 1.77e+06 M⁻¹ s⁻¹. With `CCC[C@@H](NC(=O)N1C(=O)C(CC)(CC)[C@@H]1Oc1ccc(C(=O)N2CCN(c3ncccn3)CC2)cc1)c1ccc(C)cc1` [Compound 254], the kinact/KI came out at 2.14e+06 M⁻¹ s⁻¹. In the case of `CCC[C@@H](NC(=O)N1C(=O)C(CC)(CC)[C@@H]1Oc1ccc(C(=O)N2CCN(CCOC(=O)NC)CC2)cc1)c1ccc(C)cc1` [Compound 255], the kinact/KI was found to be 2.55e+06 M⁻¹ s⁻¹. Same read-out and setting: as for `CCC[C@@H](NC(=O)N1C(=O)C(CC)(CC)[C@@H]1Oc1ccc(C(=O)N2CCN(CCO)CC2)cc1)c1ccc(C)cc1` [Compound 256a, [S-(R*,S*)]-2-[4-[[(4-Hydroxyethyl)piperazin-1-yl]carbonyl]phenoxy]-((3,3-diethyl-N-[1-(methylphenyl)butyl]-4-oxo-1-azetidinecarboxamide], the figure is 2e+06 M⁻¹ s⁻¹; as for `CCC[C@@H](NC(=O)N1C(=O)C(CC)(CC)[C@@H]1Oc1ccc(CC(N)=O)cc1)c1ccc2c(c1)OCO2` [Compound 257], 2.34e+06 M⁻¹ s⁻¹. As to `CCC[C@@H](NC(=O)N1C(=O)C(CC)(CC)[C@@H]1Oc1ccc(CC(=O)N2CCOCC2)cc1)c1ccc2c(c1)OCO2` [Compound 258], the kinact/KI was determined as 1.78e+06 M⁻¹ s⁻¹. `CCC[C@@H](NC(=O)N1C(=O)C(CC)(CC)[C@@H]1Oc1ccc(CC(=O)N(C)CCN(C)C)cc1)c1ccc2c(c1)OCO2` [Compound 259]: the kinact/KI came to 2.52e+06 M⁻¹ s⁻¹. On the same count and under the same terms, the result for `CCC[C@@H](NC(=O)N1C(=O)C(CC)(CC)[C@@H]1Oc1ccc(C(=O)N(C)CCN(C)C)cc1)c1ccc2c(c1)OCO2` [Compound 260] reads 3.32e+06 M⁻¹ s⁻¹; that for `CCC[C@@H](NC(=O)N1C(=O)C(CC)(CC)[C@@H]1Oc1ccc(C(=O)N(CC)CC)cc1)c1ccc2c(c1)OCO2` [Compound 261], 3.21e+06 M⁻¹ s⁻¹. For `CCCCN(C)C(=O)c1ccc(O[C@@H]2N(C(=O)N[C@H](CCC)c3ccc4c(c3)OCO4)C(=O)C2(CC)CC)cc1` [Compound 262], the kinact/KI worked out at 3.12e+06 M⁻¹ s⁻¹. The same measure, in the same setting: the result for `CCC[C@@H](NC(=O)N1C(=O)C(CC)(CC)[C@@H]1Oc1ccc(C(=O)N2CCN(C)CC2)cc1)c1ccc2c(c1)OCO2` [Compound 263, [S-(R*,S*)]-2-[4-[[(4-Methyl)piperazin-1-yl]carbonyl]phenoxy]-((3,3-diethyl-N-[1-(3,4-methylenedioxyphenyl)butyl]-4-oxo-1-azetidinecarboxamide] reads 3.8e+06 M⁻¹ s⁻¹; that for `CCC[C@@H](NC(=O)N1C(=O)C(CC)(CC)[C@@H]1Oc1ccc(C(=O)N(C)CCN(C)Cc2ccccc2)cc1)c1ccc2c(c1)OCO2` [Compound 264], 3.43e+06 M⁻¹ s⁻¹; that for `CCC[C@@H](NC(=O)N1C(=O)C(CC)(CC)[C@@H]1Oc1ccc(C(=O)N2CCN(C3CC3)CC2)cc1)c1ccc2c(c1)OCO2` [Compound 265, [S-(R*,S*)]-2-[4-[[(4-Cyclopropyl)piperazin-1-yl]carbonyl]phenoxy]-((3,3-diethyl-N-[1-(3,4-methylenedioxyphenyl)butyl]-4-oxo-1-azetidinecarboxamide], 4.5e+06 M⁻¹ s⁻¹.

Regarding `CCC[C@@H](NC(=O)N1C(=O)C(CC)(CC)[C@@H]1Oc1ccc(C(=O)N2CCNCC2)cc1)c1ccc2c(c1)OCO2` [Compound 265a, [S-(R*,S*)]-2-[4-[[(4-Piperazin-1-yl)carbonyl]phenoxy] -((3,3-diethyl-N-[1-(3,4-methylenedioxyphenyl)butyl]-4-oxo-1-azetidinecarboxamide], the kinact/KI came to 3.25e+06 M⁻¹ s⁻¹. For `CCC[C@@H](NC(=O)N1C(=O)C(CC)(CC)[C@@H]1Oc1ccc(C(=O)N2CCN(CCO)CC2)cc1)c1ccc2c(c1)OCO2` [Compound 265c, [S-(R*,5*)]-2-[4-[[(4-Hydroxyethyl)piperazin-1-yl]carbonyl]phenoxy]-((3,3-diethyl-N-[1-(3,4-methylenedioxyphenyl)butyl]-4-oxo-1-azetidinecarboxamide], the kinact/KI is 4.8e+06 M⁻¹ s⁻¹.

Regarding `CCC[C@@H](NC(=O)N1C(=O)C(CC)(CC)[C@@H]1Oc1ccc(C(=O)N2CCOCC2)cc1)c1ccc2c(c1)OCO2` [Compound 265d], the kinact/KI worked out at 3.7e+06 M⁻¹ s⁻¹. As for `CCC[C@@H](NC(=O)N1C(=O)C(CC)(CC)[C@@H]1Oc1ccc(CC(=O)N2CCOCC2)cc1)c1cccc(C(=O)N2CCOCC2)c1` [Compound 266], the kinact/KI is 169000 M⁻¹ s⁻¹.

With `CCC[C@@H](NC(=O)N1C(=O)C(CC)(CC)[C@@H]1Oc1ccc(CC(=O)N(CC)CC)cc1)c1cccc(C(=O)N2CCOCC2)c1` [Compound 267], the kinact/KI was 334000 M⁻¹ s⁻¹. Regarding `CCC[C@@H](NC(=O)N1C(=O)C(CC)(CC)[C@@H]1Oc1ccc(CC(=O)N(C)CCN(C)C)cc1)c1cccc(C(=O)N2CCOCC2)c1` [Compound 268], the kinact/KI was 142000 M⁻¹ s⁻¹. On the same count and under the same terms, as for `CCC[C@@H](NC(=O)N1C(=O)C(CC)(CC)[C@@H]1Oc1ccc(CC(N)=O)cc1)c1ccc(C)c(C(=O)N2CCOCC2)c1` [Compound 269], the figure is 637000 M⁻¹ s⁻¹; as for `CCC[C@@H](NC(=O)N1C(=O)C(CC)(CC)[C@@H]1Oc1ccc(CC(=O)N(CC)CC)cc1)c1ccc(C)c(C(=O)N2CCOCC2)c1` [Compound 270], 740000 M⁻¹ s⁻¹; as for `CCC[C@@H](NC(=O)N1C(=O)C(CC)(CC)[C@@H]1Oc1ccc(CC(=O)N(CCC)CCC)cc1)c1ccc(C)c(C(=O)N2CCOCC2)c1` [Compound 271], 826000 M⁻¹ s⁻¹. In the case of `CCC[C@@H](NC(=O)N1C(=O)C(CC)(CC)[C@@H]1Oc1ccc(C(=O)N(C)CCN(C)C)cc1)c1ccc(CC)c(C(=O)N2CCOCC2)c1` [Compound 272], the kinact/KI is 2.42e+06 M⁻¹ s⁻¹.

Take `CCCCN(C)C(=O)c1ccc(O[C@@H]2N(C(=O)N[C@H](CCC)c3ccc(CC)c(C(=O)N4CCOCC4)c3)C(=O)C2(CC)CC)cc1` [Compound 273]: the kinact/KI came out at 3.26e+06 M⁻¹ s⁻¹. Turning to `CCC[C@@H](NC(=O)N1C(=O)C(CC)(CC)[C@@H]1Oc1ccc(CC(N)=O)cc1)c1ccc(C(=O)N2CCOCC2)cc1` [Compound 274], the kinact/KI was found to be 430000 M⁻¹ s⁻¹. Still for that read-out and setting: as for `CCC[C@@H](NC(=O)N1C(=O)C(CC)(CC)[C@@H]1Oc1ccc(CC(=O)N(C)CCN(C)C)cc1)c1ccc(C(=O)N2CCOCC2)cc1` [Compound 275], the figure is 290000 M⁻¹ s⁻¹; as for `CCC[C@@H](NC(=O)N1C(=O)C(CC)(CC)[C@@H]1Oc1ccc(CC(=O)OC)cc1)c1ccc(C(=O)N2CCOCC2)cc1` [Compound 276], 440000 M⁻¹ s⁻¹. For the compound `CCC[C@@H](NC(=O)N1C(=O)C(CC)(CC)[C@@H]1Oc1ccc(C(=O)N(C)CCN(C)C)cc1)c1ccc(C(=O)N2CCOCC2)cc1` [Compound 277], the kinact/KI came to 548000 M⁻¹ s⁻¹.

`CCC[C@@H](NC(=O)N1C(=O)C(CC)(CC)[C@@H]1Oc1ccc(C(=O)OCCN(C)C)cc1)c1ccc(C(=O)N2CCOCC2)cc1` [Compound 278]: the kinact/KI was 135000 M⁻¹ s⁻¹. Take `CCC[C@@H](NC(=O)N1C(=O)C(CC)(CC)[C@@H]1Oc1ccc(C(=O)N(CC)CC)cc1)c1ccc(C(=O)N2CCOCC2)cc1` [Compound 279]: the kinact/KI amounted to 566000 M⁻¹ s⁻¹. As for `CCC[C@@H](NC(=O)N1C(=O)C(CC)(CC)[C@@H]1Oc1ccc(C(=O)N2CCOCC2)cc1)c1ccc(C(=O)N2CCOCC2)cc1` [Compound 280], the kinact/KI was determined as 577000 M⁻¹ s⁻¹.

`CCC[C@@H](NC(=O)N1C(=O)C(CC)(CC)[C@@H]1Oc1ccc(CC(=O)N2CCOCC2)cc1)c1ccc(C(=O)O)cc1` [Compound 281]: the kinact/KI was 62000 M⁻¹ s⁻¹. On the same count and under the same terms, the result for `CCC[C@@H](NC(=O)N1C(=O)C(CC)(CC)[C@@H]1Oc1ccc(CC(=O)N2CCOCC2)cc1)c1ccc(C(=O)OCCN(C)C)cc1` [Compound 282] reads 421000 M⁻¹ s⁻¹. On to `CCC[C@@H](NC(=O)N1C(=O)C(CC)(CC)[C@@H]1Oc1ccc(CC(=O)N2CCOCC2)cc1)c1ccc(C(=O)N(C)CCN(C)C)cc1` [Compound 283], for which the kinact/KI was determined as 393000 M⁻¹ s⁻¹. Still for that read-out and setting: the result for `CCC[C@@H](NC(=O)N1C(=O)C(CC)(CC)[C@@H]1Oc1ccc(CC(=O)N(C)CCN(C)C)cc1)c1ccc(O)cc1` [Compound 284] reads 309000 M⁻¹ s⁻¹; that for `CCC[C@@H](NC(=O)N1C(=O)C(CC)(CC)[C@@H]1Oc1ccc(C(=O)N(C)CCN(C)C)cc1)c1ccc(C(=O)N(C)C)cc1` [Compound 286], 551000 M⁻¹ s⁻¹.

The same experiment, now with this note: second order rate constant for inactivation of the enzyme, expressed to the nearest thousand; pH 7.5.
On to `CCC[C@@H](NC(=O)N1C(=O)C(CC)(CC)[C@@H]1Oc1ccc(CC(=O)N(C)CCN(C)C)cc1)c1ccc(OC)cc1` [Compound 285], for which the “Kobs/[I]” value is 566,000 per mole per second.
